Experimental findings from ChEMBL document CHEMBL3045805, “Synthesis, characterization, and antimicrobial activity of some new coumarin derivatives” (Med Chem Res, 2012) are described below.

Values after ≈ are worked out from the molar mass of the structure shown. A value given as a limit tells only on which side of the number the result lay.

Experiment [1] deals with Staphylococcus aureus. The experiment in a line: Antibacterial activity against Staphylococcus aureus at 50 ug/ml after 24 hr by agar diffusion method. Format: functional. The following applies: read-out: DIZ.
The test system of experiment [2] is Escherichia coli. Nature of the experiment: Antibacterial activity against Escherichia coli at 50 ug/ml after 24 hr by agar diffusion method. Format: functional. The following applies: read-out: DIZ.
In experiment [3] the test system is Klebsiella pneumoniae. Nature of the experiment: Antibacterial activity against Klebsiella pneumoniae at 50 ug/ml after 24 hr by agar diffusion method. The format is functional. The following applies: read-out: DIZ. On the technique in general: Agar diffusion results depend on both activity and mobility in agar.
Experiment [4] concerns Staphylococcus aureus. The experiment in a line: Antibacterial activity against Staphylococcus aureus after 24 hr. Format: functional.
The subject of experiment [5] is Escherichia coli. The experiment in a line: Antibacterial activity against Escherichia coli after 24 hr. The format is functional.
The test system of experiment [6] is Klebsiella pneumoniae. The experiment in a line: Antibacterial activity against Klebsiella pneumoniae after 24 hr. Format: functional.
For experiment [7], the system named is Staphylococcus aureus. The experiment in a line: Antibacterial activity against Staphylococcus aureus at 1 ug/ml after 24 hr by agar diffusion method. The following applies: read-out: DIZ.
Experiment [8] relates to Klebsiella pneumoniae. The experiment in a line: Antibacterial activity against Klebsiella pneumoniae at 1 ug/ml after 24 hr by agar diffusion method. The following applies: read-out: DIZ.

For `Cc1cc(=O)oc2cc(OCC(=O)NNS(=O)(=O)c3ccc(F)cc3)ccc12`, the zone of inhibition at 50 µg/mL in experiment [1] was determined as 9 mm; in experiment [2] it was 12 mm; in experiment [3], 12 mm. Moreover, the MIC in experiment [4] amounted to 96.6 µg/mL (≈ 238 µM); in experiment [5] it was 24.1 µg/mL (≈ 59.3 µM); in experiment [6], 48.3 µg/mL (≈ 119 µM).
In the case of `Cc1ccc(S(=O)(=O)NNC(=O)COc2ccc3c(C)cc(=O)oc3c2)cc1`, the zone of inhibition at 50 µg/mL is 10 mm in experiment [1], 11 mm in experiment [2] and 10 mm in experiment [3]. Also, the minimum inhibitory concentration (MIC) in experiment [4] turned out to be 98.4 µg/mL (≈ 245 µM); in experiment [5], 98.4 µg/mL (≈ 245 µM); in experiment [6] it was 49.2 µg/mL (≈ 122 µM).
`O=C(O)c1cn(C2CC2)c2cc(N3CCNCC3)c(F)cc2c1=O` [CIPROFLOXACIN]: the zone of inhibition at 1 µg/mL is 24 mm in experiment [7] and 20 mm in experiment [8]. The MIC in experiment [4] is 0.6 µg/mL (≈ 1.81 µM); in experiment [5], 0.6 µg/mL (≈ 1.81 µM); in experiment [6], 1.3 µg/mL (≈ 3.92 µM).
On to `Cc1cc(=O)oc2cc(OCC(=O)NNS(=O)(=O)c3ccc(Br)cc3)ccc12`, for which the zone of inhibition at 50 µg/mL in experiment [1] turned out to be 14 mm; in experiment [2] it was 12 mm; in experiment [3], 11 mm. For the same compound, the minimum inhibitory concentration (MIC) worked out at 85.1 µg/mL (≈ 182 µM) in experiment [4], 42.6 µg/mL (≈ 91.2 µM) in experiment [5] and 42.6 µg/mL (≈ 91.2 µM) in experiment [6].
On to `COc1ccc2c(CNc3ccc4c(C)cc(=O)oc4c3)cc(=O)oc2c1`, for which the zone of inhibition at 50 µg/mL in experiment [1] came out at 10 mm; in experiment [2], 12 mm; in experiment [3], 20 mm. The MIC in experiment [4] was found to be 91.9 µg/mL (≈ 253 µM); in experiment [5], 45.9 µg/mL (≈ 126 µM); in experiment [6], 22.9 µg/mL (≈ 63 µM).
For `Cc1cc(=O)oc2cc(OCC(=O)NNS(=O)(=O)c3ccc(C(F)(F)F)cc3)ccc12`, the zone of inhibition at 50 µg/mL in experiment [1] turned out to be 11 mm; in experiment [2], 13 mm; in experiment [3] it was 15 mm. Besides, the MIC in experiment [4] amounted to 89.1 µg/mL (≈ 195 µM); in experiment [5], 44.5 µg/mL (≈ 97.5 µM); in experiment [6], 44.5 µg/mL (≈ 97.5 µM).
As for `Cc1cc(=O)oc2cc(OCC(=O)NNS(=O)(=O)c3cccc([N+](=O)[O-])c3)ccc12`, the zone of inhibition at 50 µg/mL was determined as 10 mm in experiment [1], 13 mm in experiment [2] and 14 mm in experiment [3]. In addition, the results for the minimum inhibitory concentration (MIC) in experiment [4], in experiment [5] and in experiment [6] were greater than 100 µg/mL, 26 µg/mL (≈ 60 µM) and 52 µg/mL (≈ 120 µM), respectively.
For the compound `Cc1cc(=O)oc2cc(OCC(=O)NNc3ccnc4c(Cl)cccc34)ccc12`, the zone of inhibition at 50 µg/mL in experiment [1] was 10 mm; in experiment [2], 13 mm; in experiment [3], 13 mm. For the same compound, the values for the MIC in experiment [4], in experiment [5] and in experiment [6] were greater than 100 µg/mL, 28.9 µg/mL (≈ 70.5 µM) and 57.8 µg/mL (≈ 141 µM), respectively.
Regarding `COc1ccc2c(CNc3ccc4c(C)cc(=O)oc4c3)c(Br)c(=O)oc2c1`, the zone of inhibition at 50 µg/mL in experiment [1] came to 10 mm; in experiment [2], 11 mm; in experiment [3], 14 mm. For the same compound, the figures for the minimum inhibitory concentration (MIC) in experiment [4], in experiment [5] and in experiment [6] were 92.8 µg/mL (≈ 210 µM), 46.4 µg/mL (≈ 105 µM) and 46.4 µg/mL (≈ 105 µM), respectively.
In the case of `CCOC(=O)c1oc2cc(OC)ccc2c1CNc1ccc2c(C)cc(=O)oc2c1`, the zone of inhibition at 50 µg/mL in experiment [1] amounted to 11 mm; in experiment [2] it was 11 mm; in experiment [3], 14 mm. In addition, the results for the MIC in experiment [4], in experiment [5] and in experiment [6] were greater than 100 µg/mL, 51.6 µg/mL (≈ 127 µM) and 25.8 µg/mL (≈ 63.3 µM), respectively.
On to `Cc1cc(=O)oc2cc(OCC(=O)NNS(=O)(=O)c3ccc(Cl)cc3)ccc12`, for which the figures for the zone of inhibition at 50 µg/mL in experiment [1], in experiment [2] and in experiment [3] were 9 mm, 12 mm and 10 mm, respectively. The MIC in experiment [4] is greater than 100 µg/mL; in experiment [5], 55.3 µg/mL (≈ 131 µM); in experiment [6] it was 27.7 µg/mL (≈ 65.5 µM).

By MIC is commonly meant the lowest concentration that inhibits growth of the organism. A lower MIC goes with a more susceptible organism.
